Data from patent publication US4859673A, “Amide derivatives and antiallergic agents containing the same” (Terumo Kabushiki Kaisha, priority 1986, dated 1989).

System: passive cutaneous anaphylaxis reaction (PCA reaction)
Assay: PCA reaction-inhibitory effects in rats (passive cutaneous anaphylaxis, oral administration)
Type: in vivo, Female Sprague-Dawley strain rats
Settings: 1 hour before challenge
Method: DNP-ascaris (1 mg) prepared by combining a swine ascaris extract with 2,4-dinitrophenyl sulfate was mixe with 20 mg of aluminum hydroxide gel. The mixture was administered to rats subcutaneously on the back, and at the same time the animals were intraperitoneally given 2×10^10 dead Bordetella pertussis respectively. The same procedures were repeated after 14 days, and blood sample was obtained after 21 days to produce antisera.
Female Sprague-Dawley strain rats (8 weeks old) were sensitized by subcutaneously administering 0.1 ml of 1:256 diluted antisera (titer=1024)respectively on the grained back. After 48 hours, groups of four rats were orally given the amide derivatives produced in the examples above at various concentrations. After one hour, the rats were challenged by intravenously administering a 0.5% physiological saline solution of Evans Blue containing 1 mg of the NDP-ascaris from the tail. After 30 minutes, the animal was sacrificed by bleeding and the portion of the skin with the dye exuded was cut off. The cut skin was treated with 1N-KOH solution, and the dye was extracted by adding 9 ml of 0.6N-phosphoric acid-acetone (5:13) mixture. The supernatant from centrifugal separation was measured for absorbancy at 620 nm to determine amount of the dye. Percent inhibition at each of the concentrations of the amide derivatives was calculated in comparison with amount of the dye for control group. Results are shown in Table-I. Percent inhibition of tranilast, an antiallergic agent commercially available from Kissei Pharmaceutical Co., Ltd. under the trade name of Rizaben against PCA reaction was also shown in Table-I. As shown in Table-I, the amide derivatives of the invention produced high PCA reaction-inhibitory effects.

CCOCOc1ccc(/C=C/C=C/C(=O)NCCN2CCC(OC(c3ccccc3)c3ccccc3)CC2)cc1OC [Example 3, 1-[2-(5-(3-methoxy-4-ethoxymethoxyphenyl)-2,4-pentadienoyl)aminoethyl]-4-diphenylmethoxypiperidine]
Inhibition (%) mean ± SE, PCA reaction (30 mg/kg): 55 ± 9% | Inhibition (%) mean ± SE, PCA reaction (100 mg/kg): 78 ± 8%

COc1cc(/C=C/C=C/C(=O)NCCN2CCC(OC(c3ccccc3)c3ccccc3)CC2)ccc1OC1CCCO1 (stereo not drawn) [Example 2, 1-[2-(5-(3-methoxy-4-(2-tetrahydrofuranyl)oxyphenyl)-2,4-pentadienoyl)aminoethyl]-4-diphenylmethoxypiperidine]
Inhibition (%) mean ± SE, PCA reaction (10 mg/kg): 51 ± 18% | Inhibition (%) mean ± SE, PCA reaction (30 mg/kg): 71 ± 6%

COc1ccc(/C=C/C(=O)Nc2ccccc2C(=O)O)cc1OC [Tranilast, reference compound]
Inhibition (%) mean ± SE, PCA reaction (100 mg/kg): 37 ± 8% | Inhibition (%) mean ± SE, PCA reaction (200 mg/kg): 40 ± 10% | Inhibition (%) mean ± SE, PCA reaction (300 mg/kg): 42 ± 5%

COc1cc(/C=C/C=C/C(=O)NCCN2CCC(OC(c3ccccc3)c3ccccc3)CC2)ccc1OCc1ccccc1 [Example 1, 1-[2-(5-(3-methoxy-4-benzyloxyphenyl)-2,4-pentadienoyl)aminoethyl]-4-diphenylmethoxypiperidine]
Inhibition (%) mean ± SE, PCA reaction (30 mg/kg): 0 ± 20% | Inhibition (%) mean ± SE, PCA reaction (100 mg/kg): 50 ± 14%
